# In patent publication US11969402B2, “Compositions and methods for skin rejuvenation” (THE JOHNS HOPKINS UNIVERSITY, priority 2019, dated 2024):
# Key:
# [1] = system: wounded skin; experiment: Retinoid levels in mouse skin (LC-MS/MS, HPLC-UV); type: in vivo; details: for ROL and RE in wounded skin: WT and Tlr3−/− mice
# Description: Wound Induced Hair Neogenesis (WIHN). All experiments were followed with the present inventors' WIHN protocol^1,9. Briefly, hair was shaved and a 1.2 cm^2 full-thickness skin on the backs of 21-day old (telogen) male and female mice was removed by sterile scissors. A single treatment of RA (30 μl) (0.1 μg per mouse) (Millipore Sigma, R2625) and BMS493 (30 μl) (0.1 μg per mouse) (Cayman Chemical, #17418) was applied topically onto open wound on WD1 of Tlr3^−/− and WT mice, respectively. Poly (I:C) (50 μl) (5 μg per mouse) (Invivogen, tlrl-pic) was injected under the healed scab on WD3 of WT mice as described before^9,34. On WD20-24, numbers of regenerated hair follicles were visualized and quantified in the re-epithelialized skin by non-invasive confocal scanning laser microscopy (CSLM) (Caliber I.D., VIVASCOPE 1500) as published^1,9. As a vehicle (Control), ethanol (EtOH), dimethylsulfoxide (DMSO), or PBS was treated for RA, BMS493, and Poly (I:C), respectively.
# Tissue preparation from wounded mice. Wild type (C57BL/6J and 6NJ) and Tlr3^−/− mice were wounded as did in WIHN experiments. On PWD11 when wounds are closed, the center and edge of the wound was separated by scissors. Skin samples were immediately frozen and saved in liquid nitrogen for further analysis.
# Determination of Retinoid Levels. For in vitro samples, human scalp keratinocytes were incubated with 0.5 μg per ml of Poly (I:C) for 48 hrs or siRNAs-transfected cells were incubated with 0.1 μg per ml of Poly (I:C) for 48 hrs. For in vivo samples, skin was analyzed from wild-type and Tlr3^−/− unwounded and wounded skin where wound regions (center and edge area) were cut by scalpel. Human skin was analyzed for retinoids with and without CO2 laser treatment as described. All samples were frozen at collection and stored at −80° C. until extraction. For in vitro experiments, media and cell pellets were analyzed separately. For in vivo experiments, tissues were homogenized in saline. Extraction of retinoids was performed under yellow lights using a two-step liquid-liquid extraction that has been described in detail previously using 4,4-dimethyl-RA as an internal standard for RA and retinyl acetate as an internal standard for retinol and total retinyl ester^43-46. For the extraction of retinoids, 1 to 3 ml of 0.025 M KOH in ethanol was added to tissue homogenates (in vivo) or cell culture (in vitro) samples. Then 10 ml hexane (for in vivo tissue sample) or 5 ml hexane (for in vitro cell culture sample) was added to the aqueous ethanol phase. The samples were vortexed and centrifuged for 1 to 3 min at 1000 rpm in a Dynac centrifuge (Becton Dickinson) to facilitate phase separation and pellet precipitated protein. The hexane (top) phase containing nonpolar retinoids (ROL and RE) was removed. 4 M HCl (60-180 μl) was added to the remaining aqueous ethanol phase, samples were vortexed, and then polar retinoids (RA) were removed by extraction with a second 5-10 ml aliquot of hexane as described above. Organic hexane phases were evaporated under nitrogen while heating at approximately 25 to 30° C. in a water bath (model N-EVAP 112, Organomation Associates, Berlin, MA, USA). All samples were resuspended in 60 μl acetonitrile. Only glass containers, pipettes, and syringes were used to handle retinoids.
# Levels of RA were determined by liquid chromatography-multistage tandem mass spectrometry (LC-MRM^3) which is an LC-MS/MS method utilizing two distinct fragmentation events for enhanced selectivity^43. RA was measured using a Shimadzu Prominence UFLC XR liquid chromatography system (Shimadzu, Columbia, MD) coupled to an AB Sciex 5500 or 6500+ QTRAP hybrid triple quadrupole mass spectrometer (AB Sciex, Framingham, MA) using atmospheric pressure chemical ionization (APCI) operated in positive ion mode as previously described^43. […]
# [2] = system: keratinocytes of Tlr3−/− mice; experiment: Western blot of stem cell markers in keratinocytes of Tlr3-/- mice; type: cell-based, mouse; details: keratinocytes or whole skin from Tlr3−/− mice
# Description: Adult keratinocytes isolation and cultures. For human keratinocytes, 3-mm skin biopsies were taken from areas of the occipital scalp through above IRB protocols using enzyme digestion method as described in the literature^30,31. For mouse keratinocytes, tails of adult mice were used and followed by the same protocol of human keratinocytes. Briefly, the skin fragments were incubated in 0.4% dispase II solution overnight at 4° C., allowing separation of epidermis from dermis. Then epidermis was incubated with 0.25% trypsin-EDTA (Lonza, Walkersville, MD) to isolate keratinocytes for 5 min at 37° C. Adult keratinocytes were maintained in KGM including defined growth factors (KGM-GOLD Bullet kit, #192060) (Lonza) and supplemented with 10 μM of ROCK inhibitor (Y-27632) (Cayman Chemical, #10005583) until use^32. For all in vitro experiments, primary keratinocytes were passaged at least once to eliminate contaminating other cells isolated from epidermis and used at passage 2-4 for human and passage 1-2 for mouse keratinocytes.
# BMS493 treatment. BMS493 pan-RARs antagonist (1 μM) was pre-treated into keratinocytes for an hour and cells were incubated with RA (0.1 μM and 0.5 μM for human and mouse keratinocytes, respectively) or Poly (I:C) (0.1 μg per ml for both human and mouse keratinocytes) for 48 hrs. At the end of the experiment, cells were harvested for RNA and protein extraction to do further analysis including qRT-PCR and western blot.
# Western blot analysis. Human and mouse keratinocytes were disrupted in M-PER lysis buffer (Thermo Fisher Scientific, #78501) containing protease inhibitors (Thermo Fisher Scientific, #87786) using ultrasonic homogenizer (20% power with 5 times every 2 seconds) to extract proteins. Then, protein concentrations were determined by BCA method (Thermo Fisher Scientific, #23225). Western blot procedures were followed by the protocol of NuPAGE system (Thermo Fisher Scientific). […] The signal intensity of protein was quantified using Image Lab software (Bio-Rad). […]
Compound,"tissue RA levels prior to morphogenesis ([1]; Tlr3−/− mice, exogenous RA)",ROL and RE in wounded skin ([1]; RA vs ethanol),"levels of Krt19, Krt15 and activated β-catenin protein [2]",amount of RA during wound healing ([1]; Tlr3−/− mice),ROL and RE in wounded skin ([1]; Poly (I:C) vs PBS),amount of RA during wound healing ([1]; WT mice),"RA in center of the wound before morphogenesis ([1]; wild type mice, PWD11, center vs edge, not in Tlr3−/− mice)"
"CC1=C(/C=C/C(C)=C/C=C/C(C)=C/C(=O)O)C(C)(C)CCC1 [RA, all-trans-retinoic acid]",measurable increases,not significant,increased,–,–,–,–
Polyinosinic-polycytidylic acid [Poly (I:C)],–,–,–,much less so,not significant,substantially increased,accumulates more RA
